Like-named read-outs stand apart in the source and are kept apart here.
Tested on: HBV viral load production from HepAD38 cells
Assay: Viral production from HepAD38 cells: viral load in supernatant by qPCR of the HBV core sequence
Format: cell-based
Conditions: 5 days incubation, qPCR of supernatant HBV DNA vs DMSO control, read-out: viral load lowering EC50 (Activity)
Summary of the method: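 Viral load was measured by qPCR of the HBV core region in supernatant, quantified against DNA standards and compared with DMSO wells. Cells (50,000/well, tetracycline withdrawn, 2% FBS) received compound from 10 μM final for 5 days; EC50 from four-parameter nonlinear regression.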

[1] = Hepatitis B virus, HePAD38, 120 h

| SMILES | EC50 [1] [nM] | EC50 [nM] |
| --- | --- | --- |
| CN1C(C(=O)Nc2ccc(F)c(Cl)c2)CC(C(=O)N[C@@H](c2ccccc2)c2cnc(-c3ccccc3)s2)NS1(=O)=O (single isomer, unassigned) [1067-ISOMER-B] | 100 to 10000 |  |
| CN1C(C(=O)Nc2ccc(F)c(Cl)c2)CC(C(=O)NC2CCN(c3ccnc(Br)c3)CC2)NS1(=O)=O (single isomer, unassigned) [1036-ISOMER-B, N5-[1-(2-bromo-4-pyridyl)-4-piperidyl]-N3-(3-chloro-4-fluoro-phenyl)-2-methyl-1,1-dioxo-1,2,6-thiadiazinane-3,5-dicarboxamide] |  | 100 to 10000 |
| CC(C)OC(=O)N1CCC(NC(=O)C2CC(C(=O)Nc3ccc(F)c(Cl)c3)N(C)S(=O)(=O)N2)CC1 (stereo not drawn) [Compound 766] | < 50 |  |
| CN1C(C(=O)Nc2ccc(F)c(Cl)c2)CC(C(=O)NCc2cnc(-c3ccc(C#CCCO)cc3)s2)NS1(=O)=O (stereo not drawn) [Compound 926] | < 50 |  |
| CN1C(C(=O)Nc2ccc(F)c(Cl)c2)CC(C(=O)NCc2cccc(Cl)c2)NS1(=O)=O (single isomer, unassigned) [Compound 730-ISOMER-B, N3-(3-chloro-4-fluorophenyl)-N5-[(3-chlorophenyl)methyl]-2-methyl-1,1-dioxo-1,2,6-thiadiazinane-3,5-dicarboxamide] |  | 100 to 10000 |
| Cc1nc(-c2ccccc2F)sc1CNC(=O)C1CC(C(=O)Nc2ccc(F)c(Cl)c2)N(C)S(=O)(=O)N1 (stereo not drawn) [Compound 1016] | < 50 |  |
| Cc1nc(-c2ccccc2)sc1CNC(=O)C1CC(C(=O)Nc2ccc(F)c(C#N)c2)N(C)S(=O)(=O)N1 (stereo not drawn) [Compound 1136] | < 50 |  |
| CN1C(C(=O)Nc2ccc(F)c(C#N)c2)CC(C(=O)NCc2cccc(Cl)c2)NS1(=O)=O (stereo not drawn) [Compound 837] | < 50 |  |
| CN1CCC(Oc2ccc(-c3ncc(CNC(=O)C4CC(C(=O)Nc5ccc(F)c(Cl)c5)N(C)S(=O)(=O)N4)s3)cc2)CC1 (stereo not drawn) [Compound 979] | < 50 |  |
| CN1C(C(=O)Nc2ccc(F)c(Cl)c2)CC(C(=O)NCc2cc(-c3ccc(F)cc3)nn2C)NS1(=O)=O (single isomer, unassigned) [1143-ISOMER-B, N3-(3-chloro-4-fluoro-phenyl)-N5-[[5-(4-fluorophenyl)-2-methyl-pyrazol-3-yl]methyl]-2-methyl-1,1-dioxo-1,2,6-thiadiazinane-3,5-dicarboxamide] |  | < 50 |
| CN1C(C(=O)Nc2ccc(F)c(Cl)c2)CC(C(=O)NCc2ccn(-c3ccccc3)n2)NS1(=O)=O (single isomer, unassigned) [Compound 991-ISOMER-A, N3-(3-chloro-4-fluoro-phenyl)-2-methyl-1,1-dioxo-N5-[(1-phenylpyrazol-3-yl)methyl]-1,2,6-thiadiazinane-3,5-dicarboxamide] | 100 to 10000 |  |
| CCN1CCC(Oc2ccc(-c3ncc(CNC(=O)C4CC(C(=O)Nc5ccc(F)c(Cl)c5)N(C)S(=O)(=O)N4)s3)cc2)CC1 (stereo not drawn) [Compound 921] | 50 to 100 |  |
| CN1C(C(=O)Nc2ccc(F)c(Cl)c2)CC(C(=O)NCc2ccccc2-n2cccn2)NS1(=O)=O (stereo not drawn) [Compound 909] | < 50 |  |
| CN1C(C(=O)Nc2ccc(F)c(Cl)c2)CC(C(=O)NC2CCN(c3ccnc(Cl)c3)C2)NS1(=O)=O (stereo not drawn) [Compound 1055] | < 50 |  |
| CN1C(C(=O)Nc2ccc(F)c(Cl)c2)CC(C(=O)NCc2cnc(C3=CCC(C)(C)C3)s2)NS1(=O)=O (stereo not drawn) [Compound 1205] | 100 to 10000 |  |
| CC(C)OC1CCC(NC(=O)C2CC(C(=O)Nc3ccc(F)c(Cl)c3)N(C)S(=O)(=O)N2)CC1 (single isomer, unassigned) [Compound 862-ISOMER-A, N3-(3-chloro-4-fluoro-phenyl)-N5-(4-isopropoxycyclohexyl)-2-methyl-1,1-dioxo-1,2,6-thiadiazinane-3,5-dicarboxamide] | 100 to 10000 |  |
| COC(=O)N1CCC(NC(=O)C2CC(C(=O)Nc3ccc(F)c(Cl)c3)N(C)S(=O)(=O)N2)CC1 (stereo not drawn) [Compound 477] | < 50 |  |
| Cc1nc(CNC(=O)C2CC(C(=O)Nc3ccc(F)c(Cl)c3)N(C)S(=O)(=O)N2)sc1-c1ccccc1 (stereo not drawn) [Compound 1070] | < 50 |  |
| COc1ccc2nc(CNC(=O)C3CC(C(=O)Nc4ccc(F)c(Cl)c4)N(C)S(=O)(=O)N3)sc2c1 (stereo not drawn) [Compound 1011] | < 50 |  |
| Cc1nc(-c2ccccc2)sc1CNC(=O)C1CC(C(=O)Nc2ccc(F)c(Cl)c2)N(C)S(=O)(=O)N1 (single isomer, unassigned) [Compound 914-ISOMER-A, N3-(3-chloro-4-fluoro-phenyl)-2-methyl-N5-[(4-methyl-2-phenyl-thiazol-5-yl)methyl]-1,1-dioxo-1,2,6-thiadiazinane-3,5-dicarboxamide] | < 50 |  |
| CN1C(C(=O)Nc2ccc(F)c(Cl)c2)CC(C(=O)N[C@@H](c2ccccc2)c2cnc(-c3ccc(Cl)cc3)s2)NS1(=O)=O (single isomer, unassigned) [1068-ISOMER-D] | 100 to 10000 |  |
